Patent publication US20210278408A1, “METHODS OF TREATMENT OF CANCER WITH SUBSTITUTED PYRROLE AND PYRAZOLE COMPOUNDS AND DIAGNOSIS OF CANCERS SUSCEPTIBLE TO TREATMENT WITH SUBSTITUTED PYRROLE AND PYRAZOLE COMPOUNDS” (Bantam Pharmaceutical, LLC, priority 2018, published 2021)
Where two headings read alike, the source gives them in different places.

Test system: 407 cancer cell lines
Assay: Cell viability of cancer cell lines (IC50), CellTiter-Glo Viability Assay, 96 h
Assay type: cell-based
Settings: for IC50: read-out: Absolute IC50
Method: Viability was determined by using the 50% inhibitory concentration (IC50) as determined with the CellTiter-Glo® Viability Assay (Promega).
Experiments were initiated by first thawing and equilibrating the CellTiter-Glo® Buffer to room temperature. The lyophilized CellTiter-Glo® Substrate was also equilibrated to room temperature. The lyophilized substrate was reconstituted with the CellTiter-Glo® buffer to form the CellTiter-Glo® Reagent.
Cells were harvested during the logarithmic growth period, counted, and the cell concentration adjusted to 4.44×10^4 cells/mL using culture medium.
Cells were allowed to grow overnight and the following day, the TO reading was obtained by adding 10 μL culture medium to each well of Plate A. The plate was allowed to equilibrate at room temperature for thirty minutes, after which 50 μL CellTiter-Glo® reagent was added to each well. The contents were mixed for 5 min on an orbital shaker to induce cell lysis. Plates were incubated for 20 minutes to stabilize the luminescent signal and the TO luminescence recorded.
Test plate B was incubated for 96 h in the humidified incubator at 37° C. with 5% CO2.
Following the incubation, the plate was equilibrated at room temperature for thirty minutes. CellTiter-Glo® (50 μL) was added to each well of the plate and contents mixed for five minutes on an orbital shaker to induce cell lysis. The luminescent signal was allowed to stabilize at room temperature for 20 minutes and the luminescence recorded.
IC50 (EC50) was calculated using a dose-response curve, fitted using a nonlinear regression model with a sigmoidal dose response. Survival rate was calculated using the formula:
The Surviving rate (%)=(LumTest article−LumMedium control)/(LumNon-treated−LumMedium control)×100%.
Absolute IC50 (EC50) was calculated according to the dose-response curve generated by the statistical software (GraphPad Prism 5.0).

## N.N.[Cl][Pt][Cl] [Cisplatin, reference compound]
22Rv1 cells, 96 h
  IC50: 3.05 µM
769-P cells, 96 h
  IC50: 0.97 µM
786-O cells, 96 h
  IC50: 1.43 µM
8505C
  IC50: 2.01 µM
A3/KAW cells, 96 h
  IC50: 0.93 µM
A253 cells, 96 h
  IC50: 1.24 µM
A498 cells, 96 h
  IC50: 4.28 µM
A549 cells, 96 h
  IC50: 4.35 µM
A875 cells, 96 h
  IC50: 1.86 µM
A2058, 96 h
  IC50: 0.77 µM
A2780 cells, 96 h
  IC50: 1.38 µM
A2780cis cells, 96 h
  IC50: 5.55 µM
A-172 cells, 96 h
  IC50: 8.58 µM
A-204 cells, 96 h
  IC50: 1.05 µM
A-375, 96 h
  IC50: 1.04 µM
A-427 cells, 96 h
  IC50: 5.78 µM
A-431, 96 h
  IC50: 2.07 µM
A-673 cells, 96 h
  IC50: 0.26 µM
ACHN cells, 96 h
  IC50: 1.74 µM
AGS cells, 96 h
  IC50: 4.99 µM
AMO-1 cells, 96 h
  IC50: 1.92 µM
AN3 CA, 96 h
  IC50: 3 µM
ASH-3 cells, 96 h
  IC50: 2.72 µM
AsPC-1 cells, 96 h
  % inhibition at top conc.: 78.18%
  IC50: 4.94 µM
BT474 cells, 96 h
  IC50: 59 µM
BT-20 cells, 96 h
  IC50: 2.15 µM
BT-483
  % inhibition at top conc.: 75.40%
  IC50: 48.2 µM
BT-549 cells, 96 h
  IC50: 4.7 µM
BxPC-3
  IC50: 1.27 µM
C4-2, 96 h
  IC50: 14.9 µM
C666-1 cells, 96 h
  % inhibition at top conc.: 73.03%
  IC50: 18.1 µM
C-33 A cells, 96 h
  IC50: 0.92 µM
CADO-ES1
  IC50: 1.03 µM
CAL-27 cells, 96 h
  IC50: 0.89 µM
CAL-120
  IC50: 7.91 µM
CAMA-1, 96 h
  IC50: 9.44 µM
CCK-81 cells, 96 h
  IC50: 4.51 µM
CCRF-CEM
  IC50: 0.55 µM
CFPAC-1
  IC50: 4.13 µM
COLO 205, 96 h
  IC50: 1.97 µM
COLO 320DM, 96 h
  IC50: 3.18 µM
COV644 cells, 96 h
  IC50: 14.2 µM
Ca Ski cells, 96 h
  IC50: 6.44 µM
Caki-2
  IC50: 3.35 µM
Calu-1
  IC50: 4.77 µM
Calu-3, 96 h
  % inhibition at top conc.: 77.35%
  IC50: 0.35 µM
Calu-6
  IC50: 0.71 µM
Caov-3 cells, 96 h
  IC50: 3.61 µM
Capan-1
  IC50: 0.68 µM
Capan-2
  IC50: 21.9 µM
CoC1/DDP cells, 96 h
  IC50: 5.78 µM
CoC1 cells, 96 h
  IC50: 3.24 µM
DLD-1
  IC50: 2.43 µM
DMS 53 cells, 96 h
  IC50: 2.85 µM
DMS 79
  IC50: 0.81 µM
DMS 114 cells, 96 h
  IC50: 2.02 µM
DOHH-2 cells, 96 h
  IC50: 0.19 µM
DU 145, 96 h
  IC50: 1.15 µM
DU4475
  IC50: 1.35 µM
DV-90 cells, 96 h
  IC50: 3.25 µM
Daoy cells, 96 h
  IC50: 0.39 µM
Daudi cells, 96 h
  IC50: 0.21 µM
Detroit 562 cells, 96 h
  IC50: 1.35 µM
DoTc2 4510 cells, 96 h
  IC50: 2.84 µM
EBC-1, 96 h
  IC50: 4.61 µM
EFM-192A, 96 h
  IC50: 11.3 µM
EJM cells, 96 h
  IC50: 6.74 µM
EOL-1
  IC50: 0.46 µM
ES-2 cells, 96 h
  IC50: 3.51 µM
FTC-133
  IC50: 0.98 µM
G-292 clone A141B1 cells, 96 h
  IC50: 1.11 µM
GTL-16 cells, 96 h
  IC50: 1.09 µM
H4 cells, 96 h
  IC50: 2.26 µM
HBL-1
  IC50: 1.21 µM
HCC38
  IC50: 2.86 µM
HCC 94 cells, 96 h
  IC50: 1.98 µM
HCC827 cells, 96 h
  IC50: 8.58 µM
HCC1187 cells, 96 h
  IC50: 2.01 µM
HCC1428
  IC50: 34.9 µM
HCC1500
  IC50: 7.64 µM
HCC1569
  IC50: 5.78 µM
HCC1806 cells, 96 h
  IC50: 2.23 µM
HCC1937
  IC50: 5.07 µM
HCC1954
  IC50: 7.18 µM
HCC2218, 96 h
  IC50: 10.8 µM
HCC2935
  IC50: 51.7 µM
HCC4006, 96 h
  IC50: 5.76 µM
HCC-78 cells, 96 h
  IC50: 2.25 µM
HCCC-9810
  IC50: 2.96 µM
HCCLM3 cells, 96 h
  % inhibition at top conc.: 60.88%
  IC50: 10.8 µM
HCT-8
  IC50: 9.04 µM
HCT-15
  IC50: 3.26 µM
HCT-116
  IC50: 4.03 µM
HEC-1-A cells, 96 h
  % inhibition at top conc.: 83.97%
  IC50: 13.3 µM
HEC-1-B cells, 96 h
  IC50: 10.6 µM
HEL 92.1.7
  IC50: 0.48 µM
HGC-27 cells, 96 h
  IC50: 0.77 µM
HL-60
  IC50: 1.15 µM
HLE cells, 96 h
  IC50: 2.48 µM
HM-7, 96 h
  IC50: 6.26 µM
HPAC
  IC50: 14.3 µM
HT-3 cells, 96 h
  IC50: 4.85 µM
HT-29
  IC50: 2.89 µM
HT-55
  IC50: 17.7 µM
HT-1080, 96 h
  IC50: 3.53 µM
HT-1376
  IC50: 3.28 µM
HeLa 229 cells, 96 h
  IC50: 7.25 µM
HeLa cells, 96 h
  IC50: 0.28 µM
Hep3B
  IC50: 3.08 µM
Hep G2/C3A, 96 h
  IC50: 1.84 µM
Hep G2
  IC50: 4.51 µM
HuCCT1, 96 h
  IC50: 10 µM
HuT 78
  IC50: 0.5 µM
IHH-4 cells, 96 h
  IC50: 2.65 µM
IM95m cells, 96 h
  IC50: 8.43 µM
IMR-32 cells, 96 h
  IC50: 0.06 µM
Ishikawa, 96 h
  IC50: 2.75 µM
J82 cells, 96 h
  IC50: 0.31 µM
JAR
  IC50: 0.61 µM
JEG-3 cells, 96 h
  IC50: 0.52 µM
JHH-1 cells, 96 h
  IC50: 6.04 µM
JHH-4 cells, 96 h
  IC50: 1.07 µM
JHH-5 cells, 96 h
  IC50: 0.85 µM
JHH-7 cells, 96 h
  IC50: 1.83 µM
JIMT-1 cells, 96 h
  IC50: 6.96 µM
JJN-3 cells, 96 h
  IC50: 4.08 µM
JVM-2
  IC50: 1.46 µM
JVM-3
  IC50: 1.12 µM
JVM-13
  IC50: 0.54 µM
JeKo-1 cells, 96 h
  IC50: 1.36 µM
Jurkat clone E6-1
  IC50: 0.47 µM
K-562
  IC50: 5.73 µM
KARPAS-299 cells, 96 h
  IC50: 0.89 µM
KARPAS-422
  IC50: 1.11 µM
KATO III, 96 h
  % inhibition at top conc.: 67.05%
  IC50: 10.5 µM
KG-1
  IC50: 2.02 µM
KHOS/NP cells, 96 h
  IC50: 1.33 µM
KMH-2 cells, 96 h
  IC50: 2.65 µM
KMS-11
  IC50: 2.16 µM
KP4 cells, 96 h
  IC50: 6.25 µM
KPL-4
  IC50: 1.37 µM
KYSE-70
  IC50: 6.11 µM
KYSE-150
  IC50: 1.79 µM
KYSE-270
  IC50: 2.15 µM
KYSE-410 cells, 96 h
  IC50: 13.5 µM
Kasumi-1
  IC50: 2.92 µM
L-82
  IC50: 1.16 µM
L-363
  IC50: 1.83 µM
LN-18 cells, 96 h
  IC50: 0.7 µM
LN-229 cells, 96 h
  IC50: 7.68 µM
LNCaP clone FGC, 96 h
  IC50: 3.43 µM
LP-1
  IC50: 7.62 µM
LS123 cells, 96 h
  IC50: 12 µM
LS 180
  IC50: 6.27 µM
LS411N
  IC50: 15.1 µM
LS513 cells, 96 h
  IC50: 2.81 µM
LS1034 cells, 96 h
  IC50: 6.52 µM
Li-7
  IC50: 0.63 µM
LoVo
  IC50: 8.27 µM
M059K cells, 96 h
  IC50: 2.66 µM
MC/CAR cells, 96 h
  IC50: 3.15 µM
MCF7
  IC50: 11.8 µM
MDA-MB-231
  IC50: 23 µM
MDA-MB-415
  IC50: 37.9 µM
MDA-MB-436, 96 h
  IC50: 0.5 µM
MDA-MB-453
  IC50: 4.86 µM
MDA-MB-468 cells, 96 h
  IC50: 0.27 µM
ME-180 cells, 96 h
  IC50: 0.84 µM
MEG-01
  IC50: 1.9 µM
MES-SA cells, 96 h
  IC50: 0.66 µM
MES-SA/DX5 cells, 96 h
  IC50: 2.77 µM
MFE-296 cells, 96 h
  IC50: 3.31 µM
MHCC97-H
  % inhibition at top conc.: 83.30%
  IC50: 7.89 µM
MIA PaCa-2
  IC50: 2.74 µM
MKN1 cells, 96 h
  IC50: 1.46 µM
MKN45, 96 h
  IC50: 5.47 µM
MKN74 cells, 96 h
  % inhibition at top conc.: 84.20%
  IC50: 11.2 µM
ML-2
  IC50: 1.21 µM
MM.1R
  IC50: 0.81 µM
MM.1S
  IC50: 1.02 µM
MOLM-13 cells, 96 h
  IC50: 0.78 µM
MOLM-16 cells, 96 h
  IC50: 0.87 µM
MOLP8 cells, 96 h
  IC50: 1.75 µM
MS751 cells, 96 h
  IC50: 4.61 µM
